From patent publication US12257290B2, “PIC1 inhibition of myeloperoxidase oxidative activity in an animal model” (priority 2018, dated 2025)
Ends that are not written are not given here.

Columns and labels:
human neutrophils = assay: MPO-initiated NET formation by human neutrophils (fluorescence microscopy, PicoGreen free DNA); type: cell-based; conditions: for reduction in free DNA (PicoGreen): vs MPO with no inhibitor
Description: Neutrophils from the blood of healthy volunteers were purified from heparinized blood by Hypaque-Ficoll step gradient centrifugation, dextran sedimentation, and hypotonic lysis, as previously described.
A Neutrophil Extracellular Trap assay was performed in a microtiter plate as follows. The formation of NETs was induced by incubating 2.0×10^5 neutrophils in a 96 well tissue culture plates with RPMI media alone, or adding 0.05% of H2O2, or 12 nM PMA, or 8 μg/ml MPO, or PA-dPEG24 at various concentrations. For immune complex sera induced NET formation, activated sera was made by adding 5 μl of ovalbumin-anti-ovalbumin immune complex to 5% NHS in 0.3 ml of GVBS^++. This combination was allowed to incubate for 30 minutes at 37° C., and then 0.05 ml was added to the neutrophils in RPMI. Cells were then incubated for 1.5 hours at 37° C. in 5% CO2 incubator.
NET formation was quantitatively assayed as follows. Free DNA was measured by PicoGreen in the supernatant recovered from the NET microtiter plate well assay. Five hundred units of […] (Fisher) were added to each well to allow for digestion of released extracellular DNA for 10 minutes in 37° C. incubator. The preparation was then aliquoted into an adjacent well and mixed 1:1 with prepared PICO green reagent (Fisher). The fluorescence was then quantified on a BioTek microplate reader at Excitation 485 nm/Emission 528 nm.
NET formation was assayed by fluorescence microscopy. Purified human neutrophils were assayed on a glass slide as follows. Cells were combined with RPMI media and the indicated stimuli as mentioned above in a tube and then aliquoted onto a glass slide circled with a hydrophobic slide marker. The slides were incubated for 1.5 hours at 37° C. in a 5% CO2 incubator at 37 degrees for 1.5 hours. Slides were fixed overnight with 4% paraformaldehyde at 4° C.
For all staining, the following conditions were used. Slides were washed in PBS and incubated in blocking solution (2% normal goat serum+2% bovine serum albumin in PBS) for 1 hour at room temperature. Then the slides were incubated with primary antibody at 1:300 in 2% BSA in PBS for 1 hour at room temperature. Slides were washed in PBS 3 times and incubated in fluorescent-labeled secondary antibody at 1:1000 or DAPI (Southern Biotech) at 0.25 pg/ml final in 2% BSA in PBS for 1 hour at room temperature. Slides were then washed 3 times in PBS and were imaged. Cells were visualized using a DP70 Digital Camera (Olympus Center, Valley Forge, PA), mounted on a BX50, Olympus microscope. Staining antibody pairs used were rabbit anti-MPO (Thermo Scientific) and rabbit anti-Histone H3 (Abcam) with the secondary goat anti-rabbit Alexa Fluor 488 (Novus Biologicals). […]

[1] = 'Two-hit' TRALI model: LPS then 30% mismatched human RBC transfusion; type: in vivo, Wistar rats
Description: In this Example, Wistar rats were primed with lipopolysaccharide followed by 30% transfusion of mismatched erythrocytes, against which the rats have preexisting antibodies. Sham and vehicle animals were used as controls with a subgroup of animals receiving PIC1 two minutes before transfusion. At 4 hours, blood was isolated for complete blood count. Isolated lung tissue was stained with hematoxylin and eosin and myeloperoxidase (MPO) activity in lung tissue was quantified in a functional assay. Free DNA in plasma was detected by PicoGreen staining.
Lung tissue stained with H&E was analyzed by a clinician blinded to the experimental groups (vehicle only and PIC1-treated animals). Neutrophil infiltration and cell wall thickening were scored on a scale of 0-4: 0=normal lungs, 1=minor lung involvement, 2=moderate lung involvement, 3=serious lung involvement, 4=severe lung involvement.
A myeloperoxidase (MPO) activity assay was conducted as follows. Frozen lung tissue was diced and homogenized on ice in 50 mM potassium phosphate, and centrifuged at 10,000 RPM at 4° C. for 15 minutes after which the supernatant was discarded. To solubilize MPO from the neutrophils in lung tissue, the pellet was resuspended in […] 50 mM hexadecyltrimethylammonium bromide (HTAB), homogenized by sonication and snap frozen in liquid nitrogen. This process was repeated twice and samples were then centrifuged at 10,000 RPM at 4° C. for 10 minutes and supernatant collected.
Peroxidase activity in these samples was measured using 10-actyl-3,7-dihydroxyphenoxazine (ADHP, Amplex Red) following MPO antibody capture from samples as previously described. Fluorescence was read from […] in […] which provided twenty-five data points per well at an excitation wavelength of 535 nm and emission wavelength of 590 nm using a BioTek microplate reader. Purified MPO was used as a positive control and phosphate buffered saline (PBS) as a negative control. All activity assays were performed in triplicate.
Free DNA was measured by PicoGreen in rat plasma as previously described. Briefly, plasma samples were diluted 1:10 in 10 mM Tris-HCl, 1 mM EDTA, pH 8.0 (TE) buffer and 50 uL of each sample was added to the wells along with 50 uL of a 1:200 dilution of PicoGreen (Life Technologies) and incubated at room temperature for 10 minutes, protected from light. A DNA standard curve was prepared in TE Buffer. The fluorescence was then read at an excitation wavelength of 485 nm and an emission wavelength of 520 nm using a BioTek microplate reader. All free DNA measurements were done in triplicate.
For the ‘two-hit’ model, rats were sedated as above and lipopolysaccharide (LPS, from Salmonella enterica serotype enteritidis, 2 mg/kg [Millipore-Sigma]) was administered intravascularly through the indwelling jugular catheter as the ‘first-hit’ similar to other TRALI models (reviewed in references). This was followed 30 minutes later by 30% mismatched RBC transfusion as the ‘second-hit’. Blood samples were collected prior to LPS administration and at 4 hours after RBC transfusion for analysis of blood chemistries (SuperChem and CBC, Antech Diagnostics). Upon completion of the final blood draw, the animals were euthanized using isofluorane and guillotine. A necropsy was completed to collect organs for histopathology. Lungs acquired from each animal were weighed and then stored in formalin or frozen at −70° C. Hematoxylin and eosin (H&E) stained sections of formalin fixed tissue were reviewed in a blinded fashion.
To determine if prophylactic administration of PIC1 would attenuate TRALI pathogenesis, this transfusion-based antibody-initiated complement-mediated TRALI model was utilized. Twenty-eight minutes after IV LPS infusion, 160 mg/kg PIC1 or vehicle control was administered IV followed by the 30% mismatched RBC transfusion. […]

## IALILEPICCQERAA-dPEG24 (cysteine pairing not given here) [PA-dPEG24, 15-amino acid PEGylated peptide, 24 PEG moieties at the C-terminus]
Human neutrophils; 1.1 mM PA-dPEG24, P=0.02
  reduction in free DNA (PicoGreen): 30%
Human neutrophils; 4.5 mM PA-dPEG24, P=0.001
  reduction in free DNA (PicoGreen): 3.7 fold
Human neutrophils; 5 mM PA-dPEG24, MPO + hydrogen peroxide
  NET formation by fluorescence microscopy: blocked
Human neutrophils; PA-dPEG24 only, no stimulus
  appearance of neutrophils incubated with PA-dPEG24 alone, fluorescence microscopy: appeared normal
[1]; 160 mg/kg IV 2 min before transfusion, 4 h after transfusion, vs vehicle p=0.001
  lung weight: significant reduction
[1]; 160 mg/kg IV prophylactic, 4 h after transfusion
  lung histology (H&E): decreased injury to the lung architecture
[1]; 5 minutes read, vs vehicle p=0.005
  MPO activity in lung tissue (Amplex Red): significantly reduced
[1]; 10 minutes read, vs vehicle p=0.002
  MPO activity in lung tissue (Amplex Red): significantly reduced
[1]; scale 0-4, 160 mg/kg IV, vs vehicle p=0.003
  lung injury score (neutrophil infiltration and cell wall thickening), mean: 1.5
[1]; vs vehicle p=0.02
  free DNA in plasma (PicoGreen): significantly reduced
[1]; vs vehicle p=0.043
  blood levels of white blood cells: significant increase
[1]; vs vehicle p=0.048
  blood levels of lymphocytes: significant increase
[1]; vs vehicle p=0.101
  circulating neutrophils: trends towards increased numbers
[1]; vs vehicle p=0.229
  circulating monocytes: trends towards increased numbers
[1]; vs vehicle, data not shown
  blood levels of creatinine, BUN/creatinine and AST: reduction
  kidney weights: reduced kidney weights
